The text below walks through data of US20240409746A1, “AZO IRON COMPLEX DYE, INK COMPOSITION CONTAINING SAME, AND METHOD FOR PRODUCING AZO IRON COMPLEX DYE” (ORIENT CHEMICAL INDUSTRIES CO., LTD., priority 2021, published 2024).

Holding throughout (format): physicochemical
The nature of data set [1]: Visual observation of hue of 5% solution of the azo iron complex dye. The following applies: for Hue of 5% methyl ethyl ketone solution with azo iron complex dye: 5% in methyl ethyl ketone, visually observed. Here is the method: A solution of the azo iron complex dye A-1 in methyl ethyl ketone was prepared at a concentration of 10 mg/1000 ml (10 ppm). The absorbance of this solution was measured using an ultraviolet-visible spectrophotometer (available from Shimadzu Corporation; trade name UV-1700).
(§1) Then the azo iron complex dyes solutions were filtered through a membrane filter (pore size 1 μm, PTFE) under reduced pressure, and the maximum concentrations of the azo iron complex dyes were defined as the concentrations at which it was confirmed that there were no insoluble substances on the membrane filter. Then the hue of the methyl ethyl ketone solution with the azo iron complex dyes concentrations of 5% was visually observed.

Data set [2] is described as follows: Electrical conductivity measurement. The following applies: 6% solution in methyl ethyl ketone. From the text: The azo iron complex dye of the present invention can be suitably used in the ink composition for a CIJ printer. Herein, the electrical conductivity K of the azo iron complex dye is preferably 300-2200 μS/cm, and more preferably 600-2000 μS/cm. As long as the electrical conductivity is within this range, the charge of the ink composition for a CIJ printer containing the azo iron complex dye can be stably and freely controlled, so that the ejection stability of the ink composition can be improved. Note that the electrical conductivity K is measured by inserting and immersing an electrode of an electrical conductivity meter in a 6 mass % methyl ethyl ketone solution of the azo iron complex dye.
A 6% solution of the azo iron complex dye A-1 in methyl ethyl ketone was prepared and measured using an electrical conductivity meter (available from Eutech Instruments Pte, Ltd.; trade name CyberScan CON100). As a result, the electrical conductivity K was 1530 μS/cm. Furthermore, a 6% solution of the azo iron complex dye A-1 in methyl ethyl ketone was prepared and measured using a conductivity meter (available from Knick Co., Ltd.; trade name Conducell 4USF-PG120). As a result, the electrical conductivity K was […].

Data set [3] is described as follows: Dissolution stability of dye solution on standing.
A short description of data set [4]: Solubility evaluation (maximum concentration with no insoluble substances on the membrane filter). Particulars: for Maximum concentration (%) Ethanol / Maximum concentration (%) Methyl ethyl ketone: tested at 5%, 10%, 15% and 20%, ultrasonically dispersed 10 minutes, 1 μm PTFE membrane filter.
Description: as §1

Consider `CCCCN(CCCC)c1ccc2c(c1)[O][Fe]1([O]c3cc(N(CCCC)CCCC)ccc3N=Nc3cc(C)c(N=Nc4ccc(C#N)cc4)cc3[O]1)[O]c1cc(N=Nc3ccc(C#N)cc3)c(C)cc1N=N2` (centres unmarked) [B-2], for which, in data set [1], the “Hue of 5% methyl ethyl ketone solution with azo iron complex dye” value is listed as “black color within a practical range” and the “Color of solution adjusted to a concentration of 5%” value was “sufficient black color”. Besides, in data set [2] (immediately after dissolution), the “Electrical conductivity K immediately after dissolution” value was found to be 165 μS/cm. Also, in data set [3] (5% solution, left overnight (8 hours)), the “Dissolution stability, left overnight” value is “precipitation was observed”. In addition, the “Dissolution stability in ethanol” value in data set [3] (ethanol solution allowed to stand for 10 minutes) is “precipitate was confirmed”. Further, in data set [4], the “Maximum concentration (%) Ethanol” value was under 5%; the “Solubility in both methyl ethyl ketone and ethanol (in words)” value was “low solubility”; the “Maximum concentration (%) Methyl ethyl ketone” value worked out at 5%.
Consider `O=[N+]([O-])c1ccc2c(c1)[O][Fe]1([O]c3cc([N+](=O)[O-])ccc3N=Nc3c(ccc4ccccc34)[O]1)[O]c1ccc3ccccc3c1N=N2` (centres unmarked) [B-1], for which, in data set [1], the “Hue of 5% methyl ethyl ketone solution with azo iron complex dye” value is “reddish brown hue” and the “Color of solution adjusted to a concentration of 5%” value was “dark brown color”. Besides, the “Electrical conductivity K” value in data set [2] (CyberScan CON100) was 1450 μS/cm. Also, in data set [4], the “Maximum concentration (%) Ethanol” value turned out to be 5%; the “Solubility in both methyl ethyl ketone and ethanol (in words)” value is reported as “good solubility”; the “Maximum concentration (%) Methyl ethyl ketone” value was 10%.
